Source: patent US4980349A, “Sulphonamides derived from diarylmethanes, the processes for preparing them and pharmaceutical compositions containing them” (SANOFI, priority 1986, dated 1990)
Where two headings read alike, the source gives them in different places.

Assays:
[1] = tested on: rat hind foot kaolin-induced oedema; experiment: Kaolin-induced arthritis test, first experiment (decrease in inflammation, foot volume); format: in vivo; details: 1 h before kaolin, Table IX, read-out: percentage decrease in the inflammation; for change in vivo at 25 mg/kg: 25 mg/kg oral; for change in vivo at 50 mg/kg: 50 mg/kg oral; for change in vivo at 100 mg/kg: 100 mg/kg oral
Method: The […] of 0.05 ml of a sterile 10% strength suspension of kaolin into the metatarsal flexor sheath of the hind foot of a rat initially induces an oedematous reaction. An inflammatory arthritis then forms.
The early oedematous reaction appears from the first hour, and reaches its maximum between the fourth hour and the sixth hour. This is the manifestation of interest. The assessment of the volume of the foot enables the action of substances on the oedematous reaction to be studied. The measurements are carried out using a Giono and Chevilard plethysmometer.
The test products are administered orally (stomach tube) one hour before the injection of the kaolin.
The results are expressed as a percentage decrease in the inflammation in the treated animals compared with a control series of animals.
The batches are of 10 animals per dose and 10 control animals.
The figures shown represent the mean of 10 animals.

[2] = tested on: rat hind foot carragheenin-induced oedema; experiment: Carragheenin-induced oedema test; format: in vivo; details: 3 h, first experiment, Table X, read-out: percentage inhibition of the inflammation; for change in vivo at 25 mg/kg: 25 mg/kg oral; for change in vivo at 50 mg/kg: 50 mg/kg oral; for change in vivo at 100 mg/kg: 100 mg/kg oral
Method: In this test, 10 rats are used per test compound of the invention. Control batches of 10 rats also receive either the comparative compound (ketoprofen) or exclusively an NaCl solution.
The compounds of the invention are administered orally (stomach tube) one hour before the injection of carragheenin.
The carragheenin is suspended at a concentration of 1% in a 0.9% isotonic sodium chloride solution. The volume injected into the rat's foot is 0.20 ml.
The volume of the foot is measured before the injection and 3 hours later. The antagonistic effect of the products towards carragheenin is reflected in the inhibition of the volume of the oedema compared with control rats. The latter receive only isotonic NaCl solution under identical conditions.

[3] = tested on: pain threshold of brewer's yeast inflamed rat hind foot; experiment: Randall and Sellitto's test (analgesic activity); format: in vivo; details: first experiment, Table XII, read-out: percentage increase in the mean pain threshold; for change in vivo at 25 mg/kg: 25 mg/kg oral; for change in vivo at 50 mg/kg: 50 mg/kg oral; for change in vivo at 100 mg/kg: 100 mg/kg oral
Method: Inflammation increases the sensitivity to pain, in particular to pressure, and analgesics raise the threshold of the sensitivity.
The inflammation is obtained by injecting 0.1 ml of a 20% strength aqueous suspension of brewer's yeast under the plantar aponeurosis of one of the hind feet. […] The pain threshold is assessed in terms of the force necessary and sufficient to initiate a characteristic reaction of withdrawing the foot.
The sensitivity to pain of the inflamed foot reaches a plateau 4 hours after the injection of the brewer's yeast, and then remains stable until the 6th hour. The pain threshold of the inflamed foot in control rats weighing 140 g is reached for pressures of 50 to 60 g, whereas it is around 160 g for the intact foot.
The action of the substance administered orally to series of 10 rats is expressed in terms of the percentage increase in the mean pain threshold, compared with that measured in the rats of a control series of 10 animals which have not received a compound of the invention.
The test products are administered orally (stomach tube) one hour before the injection of brewer's yeast.
The comparative compound used is ketoprofen.

[4] = tested on: biosynthesis of leukotrienes B4 (LTB4), human polymorphonuclear leukocytes; experiment: Biosynthesis of LTB4, isomers and oxidized metabolites in human polymorphonuclear leukocytes; format: cell-based; details: Leukocyte
Method: Polymorphonuclear leukocytes are isolated from human blood and used during the 6 hours following the withdrawal. The viability of the cells is checked by trypan blue exclusion.
5×10^6 cells are incubated for 10 minutes at 37° C. in the presence of the test product dissolved in DMSO, and are stimulated with ionophore A 23187 (Galbiochem, 10 μM) in PBS buffer at pH 7.4, Ca^2+ and Mg^2+ =1 μM.
100 ng of prostaglandin B2 (PGB2), dissolved in methanol, are added at the end of the reaction to act as an internal standard.
On centrifugation, the culture supernatant is withdrawn. The latter is retrieved under argon and stored at -80° C. until analysed by HPLC.
This analysis is carried out by injecting 250 μl onto a 5 μm ODS ultrasphere column (Beckmann), with a gradient of acetonitrile (20-80%) in water, at pH 7.4.
The amounts of the different products which absorb at 269 nm, i.e. leukotrienes B4 (LTB4), isomers of LTB4 and oxidized metabolites of LTB4, are estimated by comparison with the internal standard.
The test product is used at a concentration of 40 μM.
They are expressed either as a percentage inhibition, or as a percentage increase in the production of LTB4, isomers of LTB4 and oxidized metabolites of LTB4 (designated by +).
The experimental model is the same as that described in Section 2.1. Other products are tested by comparison with the compound of the invention no. 1574, used as a control.

[5] = first experiment, read-out: Isomers of LTB4: percentage inhibition (+ : percentage increase in the production)
[6] = first experiment, read-out: LTB4: percentage inhibition (+ : percentage increase in the production)
[7] = first experiment, read-out: Oxidized metabolites of LTB4: percentage inhibition (+ : percentage increase in the production)
[8] = second experiment, read-out: Percentage inhibition of LTB4 formation

Structure (SMILES)	change in vivo at 25 mg/kg [1]	change in vivo at 50 mg/kg [1]	change in vivo at 100 mg/kg [1]	change in vivo at 25 mg/kg [2]	change in vivo at 50 mg/kg [2]	change in vivo at 100 mg/kg [2]	change in vivo at 25 mg/kg [3]	change in vivo at 50 mg/kg [3]	change in vivo at 100 mg/kg [3]	inhibition at 40 µM [4, 5]	inhibition at 40 µM [4, 6]	inhibition at 40 µM [4, 7]	inhibition at 40 µM [4, 8]
O=C(c1ccccc1)c1ccccc1S(=O)(=O)NCCCN1CCOCC1 [Compound 1340]	-10%	-25%	-45%	-5%	-5%	-10%	10%	20%	49%	–	–	–	–
O=C(c1ccccc1)c1cc(Cl)ccc1S(=O)(=O)NCCN1CCOCC1 [Compound 1343]	–	–	–	-7%	-8%	-8%	10%	12%	12%	–	–	–	–
O=C(c1ccccc1)c1cc(Cl)ccc1S(=O)(=O)NCCCN1CCOCC1 [Compound 1344, 2-benzoyl-4-chloro-N-(3-morpholinopropyl)benzenesulphonamide]	-10%	-15%	-18%	–	–	–	18%	18%	25%	–	–	–	–
O=C(O)CNS(=O)(=O)c1ccc(Cl)cc1C(=O)c1ccccc1 [Compound 1565]	-15%	-20%	-45%	-18%	-22%	-49%	18%	28%	42%	–	–	–	–
O=C(O)CCCNS(=O)(=O)c1ccc(Cl)cc1C(=O)c1ccccc1 [Compound 1567]	-12%	-15%	-20%	-8%	-10%	-10%	12%	15%	20%	–	–	–	–
O=C(O)CCCCCNS(=O)(=O)c1ccc([N+](=O)[O-])cc1C(=O)c1ccccc1 [Compound 1568]	-15%	-18%	-40%	-15%	-20%	-35%	18%	25%	48%	–	–	–	–
O=C(O)CCCCCNS(=O)(=O)c1ccc(Cl)cc1C(=O)c1ccccc1 [Compound 1569]	-28%	-30%	-45%	-30%	-35%	-50%	10%	15%	25%	–	–	–	–
O=C(O)CCCCCCCCCCNS(=O)(=O)c1ccc([N+](=O)[O-])cc1C(=O)c1ccccc1 [Compound 1571]	-17%	-26%	-50%	-23%	-27%	-48%	25%	32%	36%	53%	60%	70%	–
O=C(O)CNS(=O)(=O)c1ccc(Cl)cc1C(=O)c1ccccc1Cl [Compound 1575]	-18%	-21%	-37%	-15%	-18%	-35%	15%	19%	35%	–	–	–	–
O=C(O)CCCCCCCCCCNS(=O)(=O)c1ccccc1C(=O)c1ccccc1 [Compound 1682]	-35%	-35%	-40%	-33%	-42%	-45%	12%	15%	20%	30%	30%	40%	–
O=C(O)CCCCCCCCCCCNS(=O)(=O)c1ccccc1C(=O)c1ccccc1 [Compound 1683]	-25%	-30%	-40%	-25%	-30%	-35%	15%	20%	30%	15%	15%	30%	–
O=C(O)CCCCCCCCCCNS(=O)(=O)c1cccc(C(=O)c2ccccc2)c1 [Compound 1684]	-28%	-42%	-45%	-30%	-45%	-55%	35%	45%	50%	35%	20%	60%	–
O=C(O)CCCCCCCCCCCNS(=O)(=O)c1cccc(C(=O)c2ccccc2)c1 [Compound 1685]	–	–	–	–	–	–	–	–	–	70%	50%	70%	–
O=C(O)CCCCCCCCCCNS(=O)(=O)c1ccc(C(=O)c2ccccc2)cc1 [Compound 1686]	-50%	-50%	-50%	-50%	-50%	-55%	35%	50%	50%	5%	0%	25%	–
O=C(O)CCCCCCCCCCCNS(=O)(=O)c1cccc(C(=O)c2cc(S(=O)(=O)NCCCCCCCCCCCC(=O)O)ccc2Cl)c1 [Compound 1689]	–	–	–	–	–	–	–	–	–	-30%	-30%	20%	–
O=C(O)CCCCCCCCCCNS(=O)(=O)c1ccc(Cl)c(C(=O)c2ccccc2)c1 [Compound 1737, 11-(3-benzoyl-4-chlorobenzenesulphonamido)undecanoic acid]	–	–	–	–	–	–	–	–	–	–	–	–	95%
O=C(O)CCCNS(=O)(=O)c1ccc(C(=O)c2cccs2)cc1 [Compound 1738, 4-[4-(2-thenoyl)benzenesulphonamido]butyric acid]	–	–	–	–	–	–	–	–	–	–	–	–	20%
O=C(O)CCCCCCCNS(=O)(=O)c1ccc(Cl)cc1C(=O)c1ccccc1Cl [Compound 1743]	–	–	–	–	–	–	–	–	–	–	–	–	20%
